The OPERA property sets (Mansouri et al. 2018)
Peptide text beside a SMILES is read from it.

| Compound | logP |
| --- | --- |
| CCc1ccc(C(=O)OCCN(C)C)cc1 | 3.15 |
| CN(C)C(N(C)C)=S(I)c1ccc(S(=O)(=O)N(C)C)cc1 (stereo not drawn) | -0.81 |
| CNC(=O)Oc1cccc(C=O)c1 | 0.92 |
| O=[N+]([O-])C=Cc1ccc(Cl)cc1 | 2.44 |
| CCOC(=O)c1ccc(O)cc1 | 2.47 |
| Oc1c(Br)cc(Br)c(O)c1Br | 4.37 |
| CCN1CCN(C(=O)NC(C(=O)NC2C(=O)N3C(C(=O)O)=C(CSc4nnnn4C)CSC23)c2ccc(O)cc2)C(=O)C1=O (stereo not drawn) | -0.74 |
| c1ccc2c(c1)-c1cccc3cccc-2c13 | 5.16 |
| Nc1ccc(S(=O)(=O)Nc2ccc(S(N)(=O)=O)cc2)cc1 | 0.35 |
| Cc1ccccc1OCC(O)CO (stereo not drawn) | 1.41 |
| CC(C)Nc1nc(Cl)nc(NC(C)C)n1 | 2.93 |
| CC(=O)Nc1ccc(O)c(C(C)C)c1 | 1.71 |
| Cc1nc(N)nc(N)c1C12CC3CC(CC(C3)C1)C2 | 2.64 |
| CON(C)C(=O)Nc1ccc(OCCCCOc2ccccc2)cc1 | 3.57 |
| CCC(=O)OCC(=O)C1(O)CCC2C3CCC4=CC(=O)CCC4(C)C3C(O)CC21C (stereo not drawn) | 2.8 |
| CCOP(=S)(OCC)SCn1c(=O)oc2cc(Cl)ccc21 | 4.38 |
| Cn1cnc([N+](=O)[O-])n1 | -0.68 |
| OCCCc1ccncc1 | 0.58 |
| O=C(O)c1cc(O)c(O)c(O)c1 | 0.7 |
| CCc1ccccc1C | 3.53 |
| C=C(F)F | 1.24 |
| NC(=O)C(Cl)Cl | 0.19 |
| CCNC(=O)c1ccc(S(N)(=O)=O)cc1 | 0.03 |
| CC(O)CN (stereo not drawn) | -0.96 |

| Compound | logP |
| --- | --- |
| O=C1CC(OC(=O)c2ccccc2)N1 (stereo not drawn) | 1.37 |
| O=C1CC(Sc2ccccn2)N1 (stereo not drawn) | 0.61 |
| CNc1nc2ccccc2o1 | 1.82 |
| CN(C)CCOC(=O)c1ccc(C#N)cc1 | 1.43 |
| CN(C)C(N(C)C)=S(I)c1cccc(Br)c1 (stereo not drawn) | 0.01 |
| CC(=O)Oc1ccc([N+](=O)[O-])cc1 | 1.5 |
| CNC(=O)Oc1ccc(C(C)=O)cc1 | 1.01 |
| COC(=O)C(=Cc1ccccc1)C(=O)OC | 2.24 |
| CCOC(=O)c1cccc([N+](=O)[O-])c1 | 2.35 |
| Nc1nc(N)nc(-c2cccc([N+](=O)[O-])c2)n1 | 1.57 |
| NS(=O)(=O)c1ccc2c(c1)S(=O)(=O)NC(CC1CCCC1)N2 (stereo not drawn) | 1.24 |
| Brc1nc(Br)c(Br)[nH]1 | 1.96 |
| CCC(C)N (stereo not drawn) | 0.74 |
| NCCc1ccc(O)c(O)c1 | -0.98 |
| CC(C)c1ccc(OC(=O)c2ccc(N)cc2O)cc1 | 4.12 |
| CC(C)Oc1cc(-n2nc(C(C)(C)C)oc2=O)c(Cl)cc1Cl | 4.8 |
| c1cnc2ccc3ncccc3c2c1 | 2.05 |
| N#Cc1ccc2ccccc2n1 | 1.6 |
| CCCOc1cn[nH]c1 | 1.42 |
| N#Cc1ccc2nc(N)[nH]c2c1 | 1.13 |
| Cc1[nH]cnc1CSCCNc1cccc(=O)[nH]1 | 0.79 |
| NC(=O)OCc1ccccc1 | 1.2 |
| CCCCOCCCC | 3.21 |
| CCOC(=O)C(=Cc1ccc(OC)cc1OC)C(C)=O | 2.41 |

| Compound | logP |
| --- | --- |
| O=[N+]([O-])c1ccc2[nH]ccc2c1 | 2.53 |
| CC/C(=C(/CC)c1ccc(O)cc1)c1ccc(O)cc1 | 5.07 |
| O=C1C=CCO1 | -0.6 |
| Cc1cnc(NS(=O)(=O)c2ccc(N)cc2)c(Br)c1 | 1.79 |
| Nc1ccc(S(=O)(=O)Nc2cccnc2Cl)cc1 | 1.58 |
| CCC(C)CC(=O)OCC1CCC(n2cnc3c(=O)[nH]cnc32)O1 (stereo not drawn) | 1 |
| CCOC(N)=O | -0.15 |
| CN(CC(O)COc1ccccc1)CC(O)COc1ccccc1 (stereo not drawn) | 2.92 |
| OCC1OC(OCc2ccccc2)C(O)C(O)C1O (stereo not drawn) | -0.7 |
| CCN(CC)CCc1cccnc1 | 1.23 |
| CC(C)OCCO | 0.05 |
| CN(C)C(=O)Nc1ccc(Cl)cc1 | 1.94 |
| Cc1cc(NC(N)=O)ccc1Br | 2.49 |
| CC1(C)CCC(C)(C)O1 | 2.06 |
| CCN(C)C | 0.7 |
| C[N+](C)(C)Cc1ccccc1.[Cl-] | -2.17 |
| Fc1ccccc1F | 2.37 |
| CCCOC(=O)c1cccnc1 | 1.94 |
| O=C(OCCc1ccccc1)c1ccccc1 | 4.01 |
| Cc1ccc(S(=O)(=O)F)cc1 | 2.74 |
| CC(C)OC(=O)Nc1ccccc1 | 2.6 |
| CCCC(=O)OCC(O)CO (stereo not drawn) | -0.17 |
| CCCOC(=O)c1ccccc1 | 3.01 |
| CCCC(=O)OCC1CCC(n2cnc3c(=O)[nH]cnc32)O1 (stereo not drawn) | 0.11 |

| Compound | logP |
| --- | --- |
| Cc1ccc(Cl)cc1C | 3.82 |
| COc1ccccc1CO | 1.13 |
| c1ccc2[nH]cnc2c1 | 1.32 |
| CCCCCOC(=O)NC | 1.96 |
| CN(C)N=Nc1ccccc1 | 2.59 |
| CSc1nc(NC(C)C)nc(NC(C)C)n1 | 3.51 |
| CCCCC(C)(C)c1ccc(C2CCCC(O)C2)c(O)c1 (stereo not drawn) | 5.43 |
| CN(C)C(=O)Oc1ccccc1[N+](=O)[O-] | 1.35 |
| CCSCC | 1.95 |
| Cc1ccc2nc(N)[nH]c2c1 | 1.11 |
| Cn1c(N)nc2ccccc21 | 0.95 |
| Nc1ccc(-c2ccc(N)cc2)cc1 | 1.34 |
| Cc1cccc(S(N)(=O)=O)c1 | 0.85 |
| CC1CCC(O)CC1 (stereo not drawn) | 1.79 |
| CCOc1ccccc1O | 1.68 |
| O=C(NCc1ccccc1)c1ccco1 | 1.81 |
| COc1ccc(C(C)=O)c(OC)c1OC | 1.63 |
| O=[N+]([O-])c1ncn(CC(O)CF)n1 (stereo not drawn) | -0.59 |
| O=C(O)COc1ccc2c(c1)CCC2 | 2.33 |
| C=CCCCCCCC | 5.15 |
| [N-]=[N+]=CC(=O)NCC(N)=O | -1.26 |
| NS(=O)(=O)c1ccc([N+](=O)[O-])c(C(F)(F)F)c1 | 1.73 |
| CCCCCCCCNC(=O)c1[nH]nc(C)c1[N+](=O)[O-] | 3.48 |
| O=[N+]([O-])c1nccn1CC(F)(F)CO | 0.04 |

| Compound | logP |
| --- | --- |
| NC(=O)Nc1cccc2cccnc12 | 1.62 |
| O=CNc1cccc2cccnc12 | 1.8 |
| Oc1c(Cl)cc(Cl)c(Cl)c1Cl | 4.45 |
| CC(C)CCC(=O)c1ccoc1 | 2.76 |
| O=C(O)c1ccc(O)c(O)c1O | 1.05 |
| O=CNc1ccc(Cl)cc1 | 2.04 |
| Clc1cnc(Cl)c(Cl)c1 | 3.11 |
| Clc1cc(Cl)c2c(Cl)ccc(Cl)c2c1 | 5.76 |
| Cc1ccc(NC(=O)N(C)C)cc1 | 1.33 |
| CC(C)(C)[N+](=O)[O-] | 1.17 |
| O=[N+]([O-])CCc1ccccc1 | 2.08 |
| O=Cc1c[nH]c2ccccc12 | 1.68 |
| O=Cc1ccoc1 | 0.51 |
| N#CCc1ccco1 | 0.85 |
| CC(=O)NC(CCC(=O)O)C(=O)NC(Cc1ccccc1)C(=O)NC(CC(C)C)C(N)=O (stereo not drawn) (Ac-Glu-Phe-Leu-NH2; configuration not given here) | 0.32 |
| O=NN(CCCl)C(=O)NC1C(O)OC(CO)C(O)C1O (stereo not drawn) | -1.02 |
| CC(C)c1ccccc1OC(=O)N(C)C | 2.65 |
| O=NN1CCOCC1 | -0.44 |
| CCC(C)NC(=O)C=C(Br)c1ccccc1 (stereo not drawn) | 3.56 |
| CCC1COC(Cn2cncn2)(c2ccc(-c3ccccc3)cc2)O1 (stereo not drawn) | 3.71 |
| CC(C)(c1ccc(O)cc1)c1ccc(O)cc1 | 3.32 |
| CNC(=O)Oc1ccccc1OC(C)C | 1.52 |
| C=CCC(CC=C)(NC(C)=O)C(N)=O | 0.05 |
| Cc1nc([N+](=O)[O-])cn1CCO | -0.59 |

| Compound | logP |
| --- | --- |
| Clc1ccccc1-c1cccc(Cl)c1Cl | 5.31 |
| CC(C)(C)C | 3.11 |
| O=C(O)c1cccc(F)c1 | 2.15 |
| CCN(CC)CCOC(=O)c1ccc(N)cc1Cl | 2.86 |
| COC(=O)C(F)(F)F | 0.6 |
| Sc1ccccc1 | 2.52 |
| O=[N+]([O-])c1ccccc1C(F)(F)F | 2.58 |
| COc1ccc(CC(C)N)cc1 (stereo not drawn) | 1.77 |
| Cc1cc([N+](=O)[O-])cc2c1NC(=O)CN=C2c1ccccc1 | 2.44 |
| C=CCOc1ccccc1C(=C)n1ccnc1 | 2.79 |
| Nc1ccc(Cl)c(Cl)c1 | 2.69 |
| Cn1c(=O)sc2ccccc21 | 1.98 |
| CC(C)C(Cl)C(=O)NC(N)=O (stereo not drawn) | 1 |
| CCc1cccc(O)c1 | 2.4 |
| O=[N+]([O-])c1ccc(O/N=C/c2cc(Br)c(O)c(Br)c2)c([N+](=O)[O-])c1 | 3.3 |
| O=C(Nc1ccc(Br)cc1)C(F)(F)F | 3.34 |
| CN(C)c1cccc2cccnc12 | 2.73 |
| Cc1cscn1 | 0.97 |
| NC(=O)Nc1ccc(Br)cc1 | 1.98 |
| CCCCc1cccc(NC(=O)N(C)C)c1 | 3.23 |
| Oc1c(F)cc(Cn2cc[nH]c2=S)cc1F | 1.08 |
| CCOC(=O)C(Cc1ccccc1)C(=O)OCC | 2.76 |
| CS(=O)c1ccccc1 (stereo not drawn) | 0.55 |
| CCCCCCBr | 3.8 |

| Compound | logP |
| --- | --- |
| NC(=O)N(CCCCCCN(N=O)C(N)=O)N=O | 0.58 |
| CC12CCC(=O)C=C1CCC1C2C(O)CC2(C)C1CCC2(O)C(=O)COC1OC(CO)C(O)C(O)C1O (stereo not drawn) | 0.15 |
| ON=Cc1ccncc1 | 0.77 |
| COC(F)(F)C(Cl)Cl | 2.21 |
| O=c1nccc[nH]1 | -1.62 |
| COc1ccccc1OC(=O)c1ccc(N)cc1O | 2.88 |
| CC(C)=NOCCOC(=O)[C@@H](C)Oc1ccc(Oc2cnc3cc(Cl)ccc3n2)cc1 | 4.6 |
| CCCn1cnc([N+](=O)[O-])n1 | 0.3 |
| CCCCCC(C)(C)c1ccc(C2CCCC(O)C2)c(O)c1 (stereo not drawn) | 5.97 |
| CC(=O)N[C@@H](C)C(=O)N[C@@H](CC(C)C)C(=O)N[C@H](C(N)=O)C(C)C (Ac-Ala-Leu-Val-NH2) | -0.14 |
| CNC(=O)Oc1ccccc1Br | 1.77 |
| ClCCOCCCl | 1.29 |
| C#CCC(O)(c1ccc(F)cc1)c1cccnc1 (stereo not drawn) | 1.78 |
| CNCC(=O)O | -2.78 |
| CC(=O)[C@@]1(O)CC[C@H]2[C@@H]3C[C@H](C)C4=CC(=O)C=C[C@]4(C)[C@@]3(F)[C@@H](O)C[C@@]21C | 2 |
| O=[N+]([O-])c1cccc(SSc2cccc([N+](=O)[O-])c2)c1 | 4.06 |
| O=Cc1ccc[nH]1 | 0.64 |
| CC(=O)Nc1ccc(OCC(O)CNC(C)C)cc1 (stereo not drawn) | 0.79 |
| CCCCCCc1ccc(O)cc1O | 3.45 |
| NNC(=O)c1ccccc1O | 0.6 |
| CC(=O)c1ccccc1NCC#N | 1.58 |
| CN(O)N=Nc1ccc(C(N)=O)cc1 | -0.22 |
| CCCCCNc1nc(NC)nc(SC(F)F)n1 | 4.42 |
| CCOCOCC | 0.84 |
